Laboratory results: BindingDB's records for patent US11185537 (Novartis, 2021)

How the values were obtained:
[1] = molecular target: DNA-binding protein Ikaros (Human, UniProt Q13422)
[2] = molecular target: Zinc finger protein Helios (Homo sapiens, UniProt Q9UKS7)
Chain of Zinc finger protein Helios (Q9UKS7 whole entry): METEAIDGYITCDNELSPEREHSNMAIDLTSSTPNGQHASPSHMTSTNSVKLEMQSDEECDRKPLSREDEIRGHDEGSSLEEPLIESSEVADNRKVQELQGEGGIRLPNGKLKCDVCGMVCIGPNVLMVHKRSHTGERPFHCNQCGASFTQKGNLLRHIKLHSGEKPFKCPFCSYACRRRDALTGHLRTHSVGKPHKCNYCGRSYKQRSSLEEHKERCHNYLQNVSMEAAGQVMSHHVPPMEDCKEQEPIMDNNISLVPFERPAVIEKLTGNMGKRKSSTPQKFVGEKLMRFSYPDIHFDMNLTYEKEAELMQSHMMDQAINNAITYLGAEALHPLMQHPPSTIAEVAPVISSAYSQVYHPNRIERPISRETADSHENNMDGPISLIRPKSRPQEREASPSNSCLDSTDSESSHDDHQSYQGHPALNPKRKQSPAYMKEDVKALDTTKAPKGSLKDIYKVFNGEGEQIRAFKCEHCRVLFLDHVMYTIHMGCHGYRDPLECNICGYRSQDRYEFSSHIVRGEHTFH

Chain of DNA-binding protein Ikaros (Q13422 whole entry): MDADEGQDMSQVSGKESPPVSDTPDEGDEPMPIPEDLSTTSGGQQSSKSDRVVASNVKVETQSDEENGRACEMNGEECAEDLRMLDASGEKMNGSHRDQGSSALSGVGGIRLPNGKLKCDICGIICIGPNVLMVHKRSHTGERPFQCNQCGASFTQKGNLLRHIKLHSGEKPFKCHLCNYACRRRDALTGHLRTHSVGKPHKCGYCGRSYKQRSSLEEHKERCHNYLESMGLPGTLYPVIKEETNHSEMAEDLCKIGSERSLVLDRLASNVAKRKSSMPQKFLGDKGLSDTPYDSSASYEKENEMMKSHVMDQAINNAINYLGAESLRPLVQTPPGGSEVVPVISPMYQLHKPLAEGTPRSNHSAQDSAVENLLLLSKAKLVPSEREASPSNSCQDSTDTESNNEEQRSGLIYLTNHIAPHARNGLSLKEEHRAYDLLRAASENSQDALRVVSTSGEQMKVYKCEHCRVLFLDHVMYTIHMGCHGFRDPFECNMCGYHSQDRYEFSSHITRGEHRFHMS

What does the source list for `CN[C@H]1CC=CC[C@@H]1N(C)c1ccc2c(c1)CN(C1CCC(=O)NC1=O)C2=O` (some centres not stated) [US11185537, Compound Mix]?
EC50 [1]: 120 nM; EC50 [2]: 230 nM
